Series [1] can be described thus: Carbon tetrachloride-induced hepatic cirrhosis: body weight. In kind it is in vivo, Sprague-Dawley rats. Conditions: 4 weeks. How it is done: (§1) Female Sprangue-Dawley rats weighing approximately 110 g each were divided into 4 groups. Group I (control) received saline (1 ml/rat) and Groups II, III and IV received 10% CCl4 -olive oil mixture (1 ml/rat) intraperitoneally twice weekly for a total 8 doses. Groups III and IV received P-1894B orally with food for 4 weeks. Average doses of P-1894B in Groups III and IV were 3.25 and 6.16 mg/kg/day, respectively. The rats were sacrificed a day after the last injection and the livers were immediately removed for the assays.

Series [2] has as its system hydroxyproline content of the liver (collagen biosynthesis). Description: Carbon tetrachloride-induced hepatic cirrhosis: hydroxyproline content of the liver. Type of series: in vivo, Sprague-Dawley rats. Conditions: for Hydroxyproline: liver, 4 weeks, CCl4 group 145.8 ± 18.3. How it is done: as §1
Hydroxyproline content of the liver was measured in 6 N HCl hydrolysate (110° C., 22h) by the method of Blumenkrantz et al [Anal. Biochem. 63, 331-340 (1975)].

For series [3], the target named is T1, protocollagen proline hydroxylase (Gallus gallus, UniProt P16924).
T1 construct: partially purified enzyme preparation obtained from chick embryos; from tissue; host or cells: chick embryos
T1 sequence (P16924 1-516): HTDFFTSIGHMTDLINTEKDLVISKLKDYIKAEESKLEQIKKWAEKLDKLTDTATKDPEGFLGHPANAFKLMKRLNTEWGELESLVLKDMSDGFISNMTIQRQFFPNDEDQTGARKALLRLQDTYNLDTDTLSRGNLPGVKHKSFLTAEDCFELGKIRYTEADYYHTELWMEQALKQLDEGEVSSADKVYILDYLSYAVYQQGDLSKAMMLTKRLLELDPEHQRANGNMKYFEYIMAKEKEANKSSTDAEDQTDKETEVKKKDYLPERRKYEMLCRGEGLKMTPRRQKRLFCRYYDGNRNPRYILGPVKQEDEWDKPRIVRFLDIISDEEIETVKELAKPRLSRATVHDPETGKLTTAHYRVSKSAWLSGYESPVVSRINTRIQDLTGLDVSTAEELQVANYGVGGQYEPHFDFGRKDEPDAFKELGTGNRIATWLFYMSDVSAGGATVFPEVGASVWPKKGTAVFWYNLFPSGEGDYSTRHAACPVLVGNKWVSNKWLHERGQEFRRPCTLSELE
T1 sequence (P09102 23-515 partner): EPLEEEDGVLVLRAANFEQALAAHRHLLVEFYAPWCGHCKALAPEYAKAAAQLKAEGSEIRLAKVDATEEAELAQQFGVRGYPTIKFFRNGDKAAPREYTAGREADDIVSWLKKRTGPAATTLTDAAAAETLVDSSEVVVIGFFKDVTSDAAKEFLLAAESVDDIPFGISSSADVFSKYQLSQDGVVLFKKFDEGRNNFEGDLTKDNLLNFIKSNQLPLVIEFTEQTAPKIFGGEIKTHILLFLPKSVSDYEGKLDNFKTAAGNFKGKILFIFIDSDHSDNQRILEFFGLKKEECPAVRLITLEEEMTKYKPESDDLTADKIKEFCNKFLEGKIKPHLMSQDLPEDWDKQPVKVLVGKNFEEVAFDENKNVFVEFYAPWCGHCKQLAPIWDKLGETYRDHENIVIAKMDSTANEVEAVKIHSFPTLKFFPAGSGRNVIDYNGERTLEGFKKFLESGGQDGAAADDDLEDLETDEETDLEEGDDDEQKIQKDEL
Nature of the series: Protocollagen proline hydroxylase inhibitor activity. In kind it is biochemical. Conditions: partially purified enzyme from chick embryos; substrate (Pro-Pro-Gly)5.4H2O.

A short description of series [4]: pKa by titrimetry. In kind it is physicochemical. To be noted: in 66.7% aqueous DMF.
The nature of series [5]: Body weight of rats in the uterus collagen test. Type of series: in vivo, Sprague-Dawley rats. Conditions: 0.3 mg/kg i.p. once daily for 6 days + 17β-estradiol (5 μg); groups of 4 rats. How it is done:
(§2) Basically in accordance with a procedure described by R. A. Salvador et al [Arch. Biochem. Biophys. 174, 382 (1976)], 0.3 mg/kg was intraperitoneally administered to Sprague-Dawley rats (female, 3 weeks old) once daily for 6 days and the amounts of collagen and non-collagenous proteins in the uteri were compared with the figures for control.

The nature of series [6]: Solubility. In kind it is physicochemical.
In series [7] the test system is protocollagen proline hydroxylase. Nature of the series: Carbon tetrachloride-induced hepatic cirrhosis: protocollagen proline hydroxylase activity in the liver. Type of series: in vivo, Sprague-Dawley rats. Conditions: for Protocollagen proline hydroxylase: liver, 4 weeks, CCl4 group 504 ± 87. How it is done:
as §1
A 10% homogenate of the liver was prepared in 20 mM Tris-HCl buffer, pH 7.5, containing 0.2 M NaCl, 0.1 M glycine, 5×10^-5 M 1,4-dithiothreitol and 0.1% Triton (polyethylene glycol p-isooctylphenyl ether) X-100 using a Polytron homogenizer. The homogenate was centrifuged at 15,000 g for 20 min and the clear supernatant was assayed for proline hydroxylase activity by the method of Hutton et al [Anal. Biochem. 16, 384-394 (1966)]. The protein content of the homogenate was measured by the method of Lowry et al [J. Biol. Chem. 193, 265-275 (1951)] using bovine serum albumin as the standard.

The subject of series [8] is collagen biosynthesis (uterus). Nature of the series: Collagen biosynthesis inhibiting activity in uteri of 17β-estradiol-treated rats. Type of series: in vivo, Sprague-Dawley rats. As for the experimental part:
as §2

Setting [9] is: 6.16 mg/kg/day, p.o., compared to livers of CCl4-fibrotic rats.
The mark [10] stands for this setting: CCl4 + P-1894B 3.25 mg/kg/day orally with food.
Setting [11] is: CCl4 + P-1894B 6.16 mg/kg/day orally with food, P<0.05 vs CCl4, n=5.
Where [12] appears, read: 0.3 mg/kg i.p. once daily for 6 days + 17β-estradiol (5 μg).

Regarding `C[C@@H]1O[C@@H](O[C@H]2CC[C@H](O[C@H]3[C@H](O)C[C@H](c4ccc5c(c4O)C(=O)C4=C(C5=O)[C@@]5(O)C(=O)C[C@](C)(O[C@H]6CC[C@H](O[C@H]7C=CC(=O)[C@H](C)O7)[C@H](C)O6)C[C@@]5(O)C=C4)O[C@@H]3C)O[C@H]2C)C=CC1=O` [P-1894B], the “weight, final” value in series [1] (CCl4 + P-1894B 3.25 mg/kg/day orally with food, initial 112 ± 9) was found to be 199 ± 19 g; in series [1] (CCl4 + P-1894B 6.16 mg/kg/day orally with food, initial 111 ± 5), 198 ± 9 g. The “hydroxyproline content in the liver (in words)” value in series [2] (setting [9]) was “significantly decreased”. In addition, the Hydroxyproline in series [2] (setting [10]) is 132.4 ± 29.6 μg/100 mg of protein; in series [2] (setting [11]) it was 122.6 ± 14.0 μg/100 mg of protein. Also, the “concentration required for a 50% inhibition of 100 μg (as protein) of partially purified enzyme” value in series [3] is listed as “about 7 μg/ml”. The same molecule yielded a PKa in series [4] of 10.15. Also, the “Body weight of rats” value in series [5] turned out to be 72 ± 5 g. In addition, the Solubility entry is “Readily soluble or soluble” in series [6] (in chloroform, dioxane, ethyl acetate, dimethylsulfoxide, acetone, methyl ethyl ketone, pyridine, methanol, ethanol, benzene, toluene, diethyl ether and 0.1 N NaOH); “sparingly soluble or insoluble” in series [6] (in petroleum ether, n-hexane and cyclohexane). Besides, the “specific activity of protocollagen proline hydroxylase in the liver (in words)” value in series [7] (setting [9]) is given as “significantly decreased”. In addition, the Protocollagen proline hydroxylase was 457 ± 68 dpm/mg of protein in series [7] (setting [10]) and 357 ± 15 dpm/mg of protein in series [7] (setting [11]). Also, the “inhibition of the biosynthesis of collagen (in words)” value in series [8] (0.3 mg/kg i.p. once daily for 6 days) was “inhibited the biosynthesis of collagen specifically and significantly”. Moreover, the “% Inhibition, Collagen” value in series [8] (setting [12]) was 78%. In addition, the “% Inhibition, Non-collagenous protein” value in series [8] (setting [12]) is -21%. The “Non-collagenous protein in uterus” value in series [8] (0.3 mg/kg i.p. once daily for 6 days + 17β-estradiol (5 μg), = total protein - collagen, control (2) 24.21 ± 7.21) worked out at 26.99 ± 4.67 mg. In addition, in series [8] (0.3 mg/kg i.p. once daily for 6 days + 17β-estradiol (5 μg), groups of 4 rats, control (2) 4.39 ± 0.16, p < 0.01 vs control (2)), the Collagen in uterus stood at 3.41 ± 0.22 mg. For the same molecule, in series [8] (0.3 mg/kg i.p. once daily for 6 days + 17β-estradiol (5 μg), groups of 4 rats, control (2) 28.6 ± 7.3), the “Total protein of uterus” value was 30.4 ± 5.0 mg.
